Laboratory results reported in ChEMBL document CHEMBL1201862, “PubChem BioAssay data set” (2004).
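A five-concentration, 48-hour dose response in 96-well plates underlies each endpoint, interpolated linearly between surrounding concentrations. The concentration for 50% growth inhibition is given as GI50.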 Calls of active or inactive are those of the source. Cut-off read from the data, not from the text of the source: active = GI50 up to about 1.1 µM and inactive = higher.

Tests used:
Assay in all cases: DTP human tumour cell line panel, 48 h
A549 = tested on: A549
HCT-116 = tested on: HCT-116
OVCAR-5 = tested on: OVCAR-5
Malme-3M = tested on: Malme-3M
HCT-15 = tested on: HCT-15
NCI/ADR-RES = tested on: NCI/ADR-RES
CAKI-1 = tested on: CAKI-1
CCRF-CEM = tested on: CCRF-CEM
SF-539 = tested on: SF-539
SF-268 = tested on: SF-268
LOX IMVI = tested on: LOX IMVI
M14 = tested on: M14
NCI-H460 = tested on: NCI-H460
RPMI-8226 = tested on: RPMI-8226
SNB-19 = tested on: SNB-19
SK-MEL-5 = tested on: SK-MEL-5
IGROV-1 = tested on: IGROV-1
ACHN = tested on: ACHN
SR = tested on: SR
T47D = tested on: T47D
PC-3 = tested on: PC-3
KM12 = tested on: KM12
SNB-75 = tested on: SNB-75
COLO 205 = tested on: COLO 205
Hs-578T = tested on: Hs-578T
SW-620 = tested on: SW-620
TK-10 = tested on: TK-10
DU-145 = tested on: DU-145
MDA-MB-231 = tested on: MDA-MB-231
EKVX = tested on: EKVX
HT-29 = tested on: HT-29
MOLT-4 = tested on: MOLT-4
MDA-MB-435 = tested on: MDA-MB-435
HCC 2998 = tested on: HCC 2998
A498 = tested on: A498
SF-295 = tested on: SF-295
OVCAR-8 = tested on: OVCAR-8
UACC-62 = tested on: UACC-62
HOP-92 = tested on: HOP-92
UO-31 = tested on: UO-31
MDA-N = tested on: MDA-N
HOP-62 = tested on: HOP-62
UACC-257 = tested on: UACC-257
MCF7 = tested on: MCF7
NCI-H522 = tested on: NCI-H522
BT-549 = tested on: BT-549
OVCAR-3 = tested on: OVCAR-3
786-0 = tested on: 786-0
SK-MEL-2 = tested on: SK-MEL-2
U-251 = tested on: U-251
SN12C = tested on: SN12C
SK-MEL-28 = tested on: SK-MEL-28
NCI-H23 = tested on: NCI-H23
HL-60 = tested on: HL-60
OVCAR-4 = tested on: OVCAR-4
K562 = tested on: K562
NCI-H226 = tested on: NCI-H226
SK-OV-3 = tested on: SK-OV-3

## N#Cc1ccc(OCc2nc3cc(C(F)(F)F)ccc3nc2-c2ccccc2)cc1
A549
  GI50: > 100 µM (inactive)
HCT-116
  GI50: > 100 µM (inactive)
OVCAR-5
  GI50: > 100 µM (inactive)
Malme-3M
  GI50: > 100 µM (inactive)
HCT-15
  GI50: > 10 µM
NCI/ADR-RES
  GI50: > 100 µM (inactive)
CAKI-1
  GI50: > 100 µM (inactive)
CCRF-CEM
  GI50: 57.7 µM (inactive)
SF-539
  GI50: > 100 µM (inactive)
SF-268
  GI50: > 100 µM (inactive)
LOX IMVI
  GI50: > 100 µM (inactive)
M14
  GI50: > 100 µM (inactive)
NCI-H460
  GI50: > 100 µM (inactive)
RPMI-8226
  GI50: > 100 µM (inactive)
SNB-19
  GI50: > 100 µM (inactive)
SK-MEL-5
  GI50: > 100 µM (inactive)
IGROV-1
  GI50: > 100 µM (inactive)
ACHN
  GI50: > 100 µM (inactive)
SR
  GI50: 70.5 µM (inactive)
T47D
  GI50: > 100 µM (inactive)
PC-3
  GI50: > 100 µM (inactive)
KM12
  GI50: > 100 µM (inactive)
SNB-75
  GI50: > 100 µM (inactive)
COLO 205
  GI50: > 100 µM (inactive)
Hs-578T
  GI50: > 100 µM (inactive)
SW-620
  GI50: > 100 µM (inactive)
TK-10
  GI50: > 100 µM (inactive)
DU-145
  GI50: > 100 µM (inactive)
MDA-MB-231
  GI50: 51.1 µM (inactive)
EKVX
  GI50: 41.2 µM (inactive)
HT-29
  GI50: 7.93 µM (inactive)
MOLT-4
  GI50: 62.1 µM (inactive)
MDA-MB-435
  GI50: > 100 µM (inactive)
HCC 2998
  GI50: > 100 µM (inactive)
A498
  GI50: > 100 µM (inactive)
SF-295
  GI50: > 100 µM (inactive)
OVCAR-8
  GI50: > 100 µM (inactive)
UACC-62
  GI50: > 100 µM (inactive)
HOP-92
  GI50: > 100 µM (inactive)
UO-31
  GI50: > 100 µM (inactive)
MDA-N
  GI50: > 100 µM (inactive)
HOP-62
  GI50: > 100 µM (inactive)
UACC-257
  GI50: > 100 µM (inactive)
MCF7
  GI50: > 100 µM (inactive)
NCI-H522
  GI50: 7.62 µM (inactive)
BT-549
  GI50: > 100 µM (inactive)
OVCAR-3
  GI50: > 100 µM (inactive)
786-0
  GI50: > 100 µM (inactive)
SK-MEL-2
  GI50: > 100 µM (inactive)
U-251
  GI50: > 100 µM (inactive)
SN12C
  GI50: > 100 µM (inactive)
SK-MEL-28
  GI50: > 100 µM (inactive)
NCI-H23
  GI50: > 100 µM (inactive)
HL-60
  GI50: 3.53 µM (inactive)
OVCAR-4
  GI50: > 100 µM (inactive)

## c1ccc2c(c1)CCCN1CCc3ccccc3C21 (stereo not drawn)
A549
  GI50: 60.1 µM (inactive)
HCT-116
  GI50: 38.5 µM (inactive)
OVCAR-5
  GI50: 42.2 µM (inactive)
Malme-3M
  GI50: > 100 µM (inactive)
HCT-15
  GI50: > 100 µM
NCI/ADR-RES
  GI50: 78.3 µM (inactive)
CAKI-1
  GI50: 93.5 µM (inactive)
CCRF-CEM
  GI50: 49.1 µM (inactive)
SF-539
  GI50: 24 µM (inactive)
SF-268
  GI50: 92 µM (inactive)
LOX IMVI
  GI50: 29.6 µM (inactive)
M14
  GI50: 26.9 µM (inactive)
NCI-H460
  GI50: 33.9 µM (inactive)
RPMI-8226
  GI50: 36.2 µM (inactive)
SNB-19
  GI50: 92.3 µM (inactive)
SK-MEL-5
  GI50: 23.3 µM (inactive)
IGROV-1
  GI50: 40.3 µM (inactive)
ACHN
  GI50: 68.9 µM (inactive)
SR
  GI50: 58.7 µM (inactive)
T47D
  GI50: > 100 µM (inactive)
PC-3
  GI50: 41 µM (inactive)
KM12
  GI50: 45.6 µM (inactive)
K562
  GI50: 30 µM (inactive)
SNB-75
  GI50: 98.2 µM (inactive)
COLO 205
  GI50: 46.7 µM (inactive)
Hs-578T
  GI50: > 100 µM (inactive)
SW-620
  GI50: 35.5 µM (inactive)
TK-10
  GI50: 61.4 µM (inactive)
DU-145
  GI50: > 100 µM (inactive)
MDA-MB-231
  GI50: 48.1 µM (inactive)
EKVX
  GI50: 39.9 µM (inactive)
HT-29
  GI50: 29 µM (inactive)
MOLT-4
  GI50: 50.9 µM (inactive)
MDA-MB-435
  GI50: 19.8 µM (inactive)
NCI-H226
  GI50: 33.3 µM (inactive)
HCC 2998
  GI50: 44.3 µM (inactive)
A498
  GI50: > 100 µM (inactive)
SF-295
  GI50: 40.2 µM (inactive)
OVCAR-8
  GI50: > 100 µM (inactive)
UACC-62
  GI50: 35.2 µM (inactive)
HOP-92
  GI50: 24.9 µM (inactive)
UO-31
  GI50: 30.3 µM (inactive)
MDA-N
  GI50: 27 µM (inactive)
HOP-62
  GI50: 50 µM (inactive)
UACC-257
  GI50: 77.1 µM (inactive)
MCF7
  GI50: > 100 µM (inactive)
NCI-H522
  GI50: > 100 µM (inactive)
BT-549
  GI50: 60.1 µM (inactive)
OVCAR-3
  GI50: > 100 µM (inactive)
786-0
  GI50: 80.9 µM (inactive)
SK-MEL-2
  GI50: 96.6 µM (inactive)
U-251
  GI50: 51.5 µM (inactive)
SN12C
  GI50: 57 µM (inactive)
SK-OV-3
  GI50: 66.5 µM (inactive)
SK-MEL-28
  GI50: 31.4 µM (inactive)
NCI-H23
  GI50: 48.4 µM (inactive)
HL-60
  GI50: 47.1 µM (inactive)
OVCAR-4
  GI50: 9.46 µM (inactive)
